# Test results reported in patent publication US20230135152A1 (ACURASTEM INCORPORATED, priority 2020, published 2023).
# Key:
# [1] = target: T1, PIKFYVE (Homo sapiens, UniProt Q9Y2I7); assay: PIKFYVE assay (luciferase ADP-Glo kinase assay, Promega); format: biochemical
# In short: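 ADP generated in the kinase reaction was detected by ADP-Glo luminescence (luciferase).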
# [2] = target: T1, PIKFYVE; assay: Cell-based Pikfyve inhibition activity assay (EEA1 staining, mean vesicle size in BJ fibroblast cells); details: Table 4, 4 hours treatment, 3 μM Apilimod = 100% inhibition
# In short: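 BJ fibroblasts treated 4 h at 37° C with eleven 3-fold doses (0.03-3000 nM), then fixed and stained for EEA1. Confocal images (20×, 16 tiles/well) analysed for mean vesicle size. Normalised to 0.5% DMSO (0%) and 3 μM apilimod (100%); dose-response fitted with variable slope.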
# T1 sequence (Q9Y2I7 whole entry): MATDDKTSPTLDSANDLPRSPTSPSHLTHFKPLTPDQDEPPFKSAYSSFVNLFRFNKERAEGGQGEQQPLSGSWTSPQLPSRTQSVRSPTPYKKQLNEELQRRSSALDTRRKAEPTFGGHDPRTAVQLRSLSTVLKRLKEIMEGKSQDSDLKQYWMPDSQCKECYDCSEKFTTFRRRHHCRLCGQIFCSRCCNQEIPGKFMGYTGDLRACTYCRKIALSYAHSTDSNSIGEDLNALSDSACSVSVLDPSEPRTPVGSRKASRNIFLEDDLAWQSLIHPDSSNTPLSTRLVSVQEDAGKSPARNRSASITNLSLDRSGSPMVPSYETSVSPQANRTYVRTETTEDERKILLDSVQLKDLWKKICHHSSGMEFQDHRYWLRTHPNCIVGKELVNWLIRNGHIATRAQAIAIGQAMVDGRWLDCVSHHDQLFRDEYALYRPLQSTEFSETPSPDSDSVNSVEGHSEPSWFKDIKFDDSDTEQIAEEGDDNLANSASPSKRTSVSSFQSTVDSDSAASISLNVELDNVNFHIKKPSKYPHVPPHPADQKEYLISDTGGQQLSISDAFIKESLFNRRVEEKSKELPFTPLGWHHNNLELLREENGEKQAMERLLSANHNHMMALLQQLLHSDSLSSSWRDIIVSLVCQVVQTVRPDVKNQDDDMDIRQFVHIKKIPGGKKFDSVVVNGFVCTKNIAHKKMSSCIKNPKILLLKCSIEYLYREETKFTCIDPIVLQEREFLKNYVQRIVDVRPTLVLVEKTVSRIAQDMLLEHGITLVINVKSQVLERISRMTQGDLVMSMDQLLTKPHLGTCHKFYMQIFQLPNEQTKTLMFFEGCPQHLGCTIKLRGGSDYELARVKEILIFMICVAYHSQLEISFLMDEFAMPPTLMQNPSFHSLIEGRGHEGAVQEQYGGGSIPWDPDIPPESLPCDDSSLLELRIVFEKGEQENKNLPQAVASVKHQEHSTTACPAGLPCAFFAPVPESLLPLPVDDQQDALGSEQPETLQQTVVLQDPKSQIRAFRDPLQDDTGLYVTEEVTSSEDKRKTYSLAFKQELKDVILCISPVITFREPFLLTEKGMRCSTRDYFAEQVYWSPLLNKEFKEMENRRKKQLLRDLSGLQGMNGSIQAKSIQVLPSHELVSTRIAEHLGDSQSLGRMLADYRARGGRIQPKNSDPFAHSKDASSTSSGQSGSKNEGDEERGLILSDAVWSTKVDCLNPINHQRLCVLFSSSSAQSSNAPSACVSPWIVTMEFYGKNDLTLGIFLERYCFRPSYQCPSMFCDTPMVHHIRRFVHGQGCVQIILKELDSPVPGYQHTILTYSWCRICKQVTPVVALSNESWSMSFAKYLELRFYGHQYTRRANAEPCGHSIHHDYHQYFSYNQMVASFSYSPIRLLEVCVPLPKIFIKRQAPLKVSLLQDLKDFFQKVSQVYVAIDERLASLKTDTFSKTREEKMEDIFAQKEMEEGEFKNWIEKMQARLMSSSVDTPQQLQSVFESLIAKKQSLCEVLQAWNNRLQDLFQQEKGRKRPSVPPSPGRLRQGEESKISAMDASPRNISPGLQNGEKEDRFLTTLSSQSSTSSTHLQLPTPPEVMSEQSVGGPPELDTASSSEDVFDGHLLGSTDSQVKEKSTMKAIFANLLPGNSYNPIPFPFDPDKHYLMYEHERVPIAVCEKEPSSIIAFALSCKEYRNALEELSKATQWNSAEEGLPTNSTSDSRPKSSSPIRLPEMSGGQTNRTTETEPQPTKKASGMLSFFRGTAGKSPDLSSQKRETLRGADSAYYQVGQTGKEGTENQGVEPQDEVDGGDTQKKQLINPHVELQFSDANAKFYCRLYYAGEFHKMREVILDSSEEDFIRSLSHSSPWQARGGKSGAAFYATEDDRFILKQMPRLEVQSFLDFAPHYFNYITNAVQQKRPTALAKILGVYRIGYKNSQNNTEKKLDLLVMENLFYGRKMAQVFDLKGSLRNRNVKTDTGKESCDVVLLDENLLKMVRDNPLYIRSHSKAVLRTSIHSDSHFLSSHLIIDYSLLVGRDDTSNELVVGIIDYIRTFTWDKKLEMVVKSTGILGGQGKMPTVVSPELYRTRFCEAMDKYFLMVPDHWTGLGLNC
SMILES,IC50 ([1]; Table 3) [nM],EC50 [2] [nM],IC50 ([1]; Table 2) [nM]
"Cn1cc(CCOc2nc(Oc3cc(-c4ccccc4)[nH]n3)cc(N3CCOCC3)n2)cn1 [Compound 215, 4-(2-(2-(1-methyl-1H-pyrazol-4-yl)ethoxy)-6-((5-phenyl-1H-pyrazol-3-yl)oxy)pyrimidin-4-yl)morpholine]",10 to 100,500 to 5000,
"Cc1cccc(-c2ccn(-c3cc(N4CCOCC4)c4[nH]cc(C)c4n3)n2)c1 [Compound 335, 4-(3-methyl-5-(3-(m-tolyl)-1H-pyrazol-1-yl)-1H-pyrrolo[3,2-b]pyridin-7-yl)morpholine]",10 to 100,500 to 5000,
"Cc1cccc(-c2ccn(-c3cc(N4CCOCC4)nc(OCC(=O)C4CC4)n3)n2)c1 [Compound 109, 1-cyclopropyl-2-((4-morpholino-6-(3-(m-tolyl)-1H-pyrazol-1-yl)pyrimidin-2-yl)oxy)ethan-1-one]",3 to 10,20 to 100,
"Cc1cc(Oc2ccn(-c3cc(N4CCOCC4)nc(OCCc4cnn(C)c4)n3)n2)ccn1 [Compound 302, 4-(2-(2-(1-methyl-1H-pyrazol-4-yl)ethoxy)-6-(3-((2-methylpyridin-4-yl)ox)-1H-pyrazol-1-yl)pyrimidin-4-yl)morpholine]",10 to 100,> 5000,
"Cc1cccc(-c2ccn(-c3cc(N4CCOCC4)nc([C@@H]4CCOC4)n3)n2)c1 (single isomer, unassigned) [Compound 330]",3 to 10,> 5000,
"CO[C@@H](CO)c1nc(N2CCO[C@@H](C)C2)cc(-n2ccc(-c3cccc(C)c3)n2)n1 (single isomer, unassigned) [Compound 306]",100 to 5000,> 5000,
"Cc1cccc(-c2ccn(-c3cc(N4CCOCC4)nc(NC(=O)CC4CC4)n3)n2)c1 [Compound 188, 2-cyclopropyl-N-(4-morpholino-6-(3-(m-tolyl)-1H-pyrazol-1-yl)pyrimidin-2-yl)acetamide]",< 3,100 to 500,
"Cc1cccc(-c2ccn(-c3cc(N4CCOCC4)nc([C@@H]4COCCO4)n3)n2)c1 (single isomer, unassigned) [Compound 324]",10 to 100,500 to 5000,
"Cn1cc(CCOc2nc(N3CCOCC3)cc(-n3ccc(-c4cn(C)c5ccccc45)n3)n2)cn1 [Compound 232, 4-(6-(3-(1-methyl-1H-indol-3-yl)-1H-pyrazol-1-yl)-2-(2-(1-methyl-1H-pyrazol-4-yl)ethoxy)pyrimidin-4-yl)morpholine]",100 to 5000,> 5000,
"COC(CO)c1nc(N2CCOCC2)cc(-n2nc(-c3c[nH]c4ccccc34)cc2C)n1 (single isomer, unassigned) [Compound 260, 2-(4-(3-(1H-indol-3-yl)-5-methyl-1H-pyrazol-1-yl)-6-morpholinopyrimidin-2-yl)-2-methoxyethan-1-ol]",< 3,< 20,
"Cc1cccc(-c2ccn(-c3cc(N4CCOCC4)nc([C@H]4CCCO4)n3)n2)c1 (single isomer, unassigned) [Compound 327]",3 to 10,500 to 5000,
"Cc1cccc(-c2ccn(-c3cc(N4CCOCC4)c4[nH]c(C)cc4n3)n2)c1 [Compound 334, 4-(2-methyl-5-(3-(m-tolyl)-1H-pyrazol-1-yl)-1H-pyrrolo[3,2-b]pyridin-7-yl)morpholine]",10 to 100,500 to 5000,
"Cn1cc(CCOc2nc(Oc3cc(-c4ccccc4)nn3C)cc(N3CCOCC3)n2)cn1 [Compound 212, 4-(2-(2-(1-methyl-1H-pyrazol-4-yl)ethoxy)-6-((1-methyl-3-phenyl-1H-pyrazol-5-yl)oxy)pyrimidin-4-yl)morpholine]",3 to 10,500 to 5000,
"CO[C@H](CO)c1nc(N2CCOCC2)cc(-n2ccc(-c3cn(C)c4ccccc34)n2)n1 (single isomer, unassigned) [Compound 320]",3 to 10,20 to 100,
"COc1nc(N2CCOCC2)c(C)c(-n2ccc(-c3cccc(C)c3)n2)n1 [Compound 83, 4-(2-methoxy-5-methyl-6-(3-(m-tolyl)-1H-pyrazol-1-yl)pyrimidin-4-yl)morpholine]",,> 5000,101 to 1000
"Cc1cccc(-c2ccn(-c3cc(N4CCOCC4)nc(CCc4cccnn4)n3)n2)c1 [Compound 317, 4-(2-(2-(pyridazin-3-yl)ethyl)-6-(3-(m-tolyl)-1H-pyrazol-1-yl)pyrimidin-4-yl)morpholine]",3 to 10,100 to 500,
"Cc1cccc(-c2ccn(-c3cc(N4CCOCC4)n4nc(C)cc4n3)n2)c1 [Compound 336, 4-(2-methyl-5-(3-(m-tolyl)-1H-pyrazol-1-yl)pyrazolo[1,5-a]pyrimidin-7-yl)morpholine]",10 to 100,500 to 5000,
"Cc1cccc(-c2ccn(-c3cc(N4CCOCC4)nc(C#CC(O)c4cnn(C)c4)n3)n2)c1 (stereo not drawn) [Compound 230, 1-(1-methyl-1H-pyrazol-4-yl)-3-(4-morpholino-6-(3-(m-tolyl)-1H-pyrazol-1-yl)pyrimidin-2-yl)prop-2-yn-1-ol]",< 3,20 to 100,
"COc1nc(N2CCOCC2)cc(-n2nc(-c3cccc(C)c3)cc2CN2CCOCC2)n1 [Compound 236, 4-(2-methoxy-6-(5-(morpholinomethyl)-3-(m-tolyl)-1H-pyrazol-1-yl)pyrimidin-4-yl)morpholine]",< 3,> 5000,
"CC(=O)Nc1nc(N2CCOCC2)cc(-n2ccc(-c3cccc(C)c3)n2)n1 [Compound 66, N-(4-morpholino-6-(3-(m-tolyl)-1H-pyrazol-1-yl)pyrimidin-2-yl)acetamide]",,100 to 500,< 5
"Cc1cccc(-c2cc([C@@H](C)O)n(-c3cc(N4CCOCC4)nc(OCCc4cnn(C)c4)n3)n2)c1 (single isomer, unassigned) [Compound 314]",< 3,< 20,

# More lines, now with the values ahead:
IC50 ([1]; Table 3) [nM],EC50 [2] [nM],IC50 ([1]; Table 2) [nM],SMILES
< 3,20 to 100,,"Cc1cccc(-c2cc(C)n(-c3cc(N4CCOCC4)nc(OCCc4cnn(C)c4)n3)n2)c1 [Compound 219, 4-(2-(2-(1-methyl-1H-pyrazol-4-yl)ethoxy)-6-(5-methyl-3-(m-tolyl)-1H-pyrazol-1-yl)pyrimidin-4-yl)morpholine]"
,500 to 5000,5 to 100,"COC(c1ccccc1)c1nc(N2CCOCC2)cc(-n2ccc(-c3ccccc3)n2)n1 (stereo not drawn) [Compound 78, 4-(2-(methoxy(phenyl)methyl)-6-(3-phenyl-1H-pyrazol-1-yl)pyrimidin-4-yl)morpholine]"
100 to 5000,> 5000,,"Cn1cc(CCOc2nc(N3CCOCC3)cc(-n3ccc(C(=O)N4CCCCC4)n3)n2)cn1 [Compound 172, (1-(2-(2-(1-methyl-1H-pyrazol-4-yl)ethoxy)-6-morpholinopyrimidin-4-yl)-1H-pyrazol-3-yl)(piperidin-1-yl)methanone]"
< 3,< 20,,"COc1ccc(CCOc2nc(N3CCOCC3)cc(-n3ccc(-c4cccc(C)c4)n3)n2)cc1OC [Compound 105, 4-(2-(3,4-dimethoxy-phenethoxy)-6-(3-(m-tolyl)-1H-pyrazol-1-yl)pyrimidin-4-yl)morpholine]"
10 to 100,100 to 500,,"Cc1cccc(-c2ccn(-c3cc(N4CCOCC4)nc(OCCN)n3)n2)c1 [Compound 209, 2-((4-morpholino-6-(3-(m-tolyl)-1H-pyrazol-1-yl)pyrimidin-2-yl)oxy)ethan-1-amine]"
,500 to 5000,101 to 1000,"Cc1cccc(-c2ccn(-c3cc(N4CCOCC4)ncn3)n2)c1 [Compound 60, 4-(6-(3-(m-tolyl)-1H-pyrazol-1-yl)pyrimidin-4-yl)morpholine]"
< 3,20 to 100,,"Cc1cccc(-c2ccn(-c3cc(N4CCOCC4)nc(COCc4cnn(C)c4)n3)n2)c1 [Compound 299, 4-(2-(((1-methyl-1H-pyrazol-4-yl)methoxy)methyl)-6-(3-(m-tolyl)-1H-pyrazol-1-yl)pyrimidin-4-yl)morpholine]"
< 3,< 20,,"C[C@@H](O)c1cccc(-c2ccn(-c3cc(N4CCOCC4)nc(OCCc4cnn(C)c4)n3)n2)c1 (single isomer, unassigned) [Compound 315]"
< 3,100 to 500,,"CO[C@H](CO)c1nc(N2CCOCC2)cc(-n2ccc(-c3csc4ccccc34)n2)n1 (single isomer, unassigned) [Compound 258]"
10 to 100,100 to 500,,"Cn1cc(C(O)c2nc(N3CCOCC3)cc(-n3ccc(-c4ccccc4)n3)n2)cn1 (stereo not drawn) [Compound 184, (1-methyl-1H-pyrazol-4-yl)(4-morpholino-6-(3-phenyl-1H-pyrazol-1-yl)pyrimidin-2-yl)methanol]"
< 3,< 20,,"COCc1cccc(-c2ccn(-c3cc(N4CCOCC4)nc(OCCc4cnn(C)c4)n3)n2)c1 [Compound 200, 4-(6-(3-(3-(methoxymethyl)phenyl)-1H-pyrazol-1-yl)-2-(2-(1-methyl-1H-pyrazol-4-yl)ethoxy)pyrimidin-4-yl)morpholine]"
3 to 10,500 to 5000,,"CO[C@@H](CO)c1nc(N2CCOCC2)cc(-n2nc(-c3csc4ccccc34)cc2C)n1 [Compound 279, (R)-2-(4-(3-(benzo[b]thiophen-3-yl)-5-methyl-1H-pyrazol-1-yl)-6-morpholinopyrimidin-2-yl)-2-methoxyethan-1-ol]"
,< 20,< 5,"Cc1cccc(-c2ccn(-c3cc(N4CCOCC4)nc(OCCc4cnn(C)c4)n3)n2)c1 [Compound 56, 4-(2-(2-(1-methyl-1H-pyrazol-4-yl)ethoxy)-6-(3-(m-tolyl)-1H-pyrazol-1-yl)pyrimidin-4-yl)morpholine]"
< 3,100 to 500,,"COC(C)(CO)c1nc(N2CCOCC2)cc(-n2ccc(-c3cccc(C)c3)n2)n1 (stereo not drawn) [Compound 227, 2-methoxy-2-(4-morpholino-6-(3-(m-tolyl)-1H-pyrazol-1-yl)pyrimidin-2-yl)propan-1-ol]"
< 3,< 20,,"CO[C@H](CO)c1nc(N2CCOCC2)cc(-n2ccc(-c3c[nH]c4ccccc34)n2)n1 (single isomer, unassigned) [Compound 318]"
